Activity calls are given as the source filed them. No cut-off for these calls is given here.

Here are results for 4 compounds from ChEMBL document CHEMBL3217670, “Structures and biofilm inhibition activities of brominated furanones for Escherichia coli and Pseudomonas aeruginosa” (Medchemcomm, 2013).

For data set [1], the system named is Escherichia coli. Nature of the data set: Inhibition of biofilm formation in sdiA-knockout Escherichia coli AY1297 expressing red fluorescent protein assessed as reduction in biomass at 200 uM after 24 hrs by confocal laser scanning microscopic analysis relative to control. The class given is functional. Conditions: AY1297, 24 h.
Data set [2] deals with Escherichia coli. Nature of the data set: Antimicrobial activity against wild-type Escherichia coli RP437 assessed as inhibition of planktonic growth at 200 uM measured for 2 to 24 hrs. It counts as organism-based. Conditions: in vivo.
In data set [3] the test system is Pseudomonas aeruginosa PAO1. In words: Inhibition of quorum sensing system-mediated elastase B production in Pseudomonas aeruginosa PAO1 at 200 uM after 24 hrs by colorimetric assay relative to control.
Data set [4] relates to Escherichia coli. In words: Inhibition of biofilm formation in wild-type Escherichia coli RP437 expressing red fluorescent protein assessed as thickness of biofilm at 200 uM after 24 hrs by confocal laser scanning microscopic analysis (reference value: 253 micrometer). It counts as functional.
The subject of data set [5] is Escherichia coli. In words: Inhibition of biofilm formation in wild-type Escherichia coli RP437 at 200 uM after 24 hrs by crystal violet staining-based assay relative to control. It counts as functional.
The subject of data set [6] is Escherichia coli. In words: Inhibition of biofilm formation in sdiA-knockout Escherichia coli AY1297 expressing red fluorescent protein assessed as effect on surface area of biofilm at 200 uM after 24 hrs by confocal laser scanning microscopic analysis. It counts as functional, organism-based.
Data set [7] deals with T1, HTH-type quorum-sensing regulator RhlR (Pseudomonas aeruginosa (strain ATCC 15692 / PAO1 / 1C / PRS 101 / LMG12228)) (UniProt P54292).
T1 sequence (whole entry): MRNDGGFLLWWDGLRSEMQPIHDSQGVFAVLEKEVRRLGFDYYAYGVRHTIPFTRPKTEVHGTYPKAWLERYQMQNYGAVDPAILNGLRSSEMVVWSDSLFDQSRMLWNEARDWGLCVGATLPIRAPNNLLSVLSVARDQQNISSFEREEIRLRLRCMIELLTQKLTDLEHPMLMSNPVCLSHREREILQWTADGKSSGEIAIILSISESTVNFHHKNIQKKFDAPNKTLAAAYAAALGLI
Nature of the data set: Agonist activity at Pseudomonas aeruginosa PAO1 RhlR expressing rhlI coexpressing LVA-GFP at 100 to 200 uM after 24 hrs by fluorescence assay.

Data set [8] deals with Escherichia coli. Nature of the data set: Ratio of inhibition of biofilm formation in sdiA-knockout Escherichia coli AY1297 to inhibition of biofilm formation in wild-type Escherichia coli RP437. It counts as functional.
Data set [9] relates to Escherichia coli. Nature of the data set: Inhibition of biofilm formation in wild-type Escherichia coli RP437 expressing red fluorescent protein assessed as effect on surface area of biofilm at 200 uM after 24 hrs by confocal laser scanning microscopic analysis. The class given is functional, organism-based.
For data set [10], the target named is T2, Transcriptional activator protein LasR (Pseudomonas aeruginosa (strain ATCC 15692 / PAO1 / 1C / PRS 101 / LMG12228)) (UniProt P25084).
T2 sequence (whole entry): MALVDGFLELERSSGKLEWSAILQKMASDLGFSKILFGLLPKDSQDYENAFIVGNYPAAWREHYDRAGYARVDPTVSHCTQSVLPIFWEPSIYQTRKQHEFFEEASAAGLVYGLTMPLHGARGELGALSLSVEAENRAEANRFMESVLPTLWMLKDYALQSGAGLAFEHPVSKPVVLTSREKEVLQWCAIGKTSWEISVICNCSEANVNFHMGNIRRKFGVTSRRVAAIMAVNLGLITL
Nature of the data set: Antagonist activity at Pseudomonas aeruginosa PAO1 LasR expressing lasI coexpressing LVA-GFP at 100 to 200 uM after 24 hrs by fluorescence assay.

Data set [11] relates to Escherichia coli. Nature of the data set: Inhibition of biofilm formation in sdiA-knockout Escherichia coli AY1297 expressing red fluorescent protein assessed as thickness of biofilm at 200 uM after 24 hrs by confocal laser scanning microscopic analysis (reference value: 157 micrometer). It counts as functional.
Data set [12] relates to Escherichia coli. Nature of the data set: Inhibition of biofilm formation in wild-type Escherichia coli RP437 at 200 uM after 24 hrs by scanning electron microscopic analysis. The class given is functional, organism-based.
The subject of data set [13] is Escherichia coli. In words: Inhibition of biofilm formation in sdiA-knockout Escherichia coli AY1297 at 200 uM after 24 hrs by crystal violet staining-based assay relative to control. It counts as functional.
In data set [14] the test system is Pseudomonas aeruginosa. Nature of the data set: Antimicrobial activity against wild-type Pseudomonas aeruginosa PAO1 assessed as inhibition of planktonic growth at 200 uM measured for 2 to 24 hrs. It counts as organism-based. Conditions: in vivo.
The subject of data set [15] is Escherichia coli. Nature of the data set: Antimicrobial activity against sdiA-knockout Escherichia coli AY1297 assessed as inhibition of planktonic growth at 200 uM measured for 2 to 24 hrs. It counts as organism-based. As to conditions: in vivo.
For data set [16], the system named is Pseudomonas aeruginosa. In words: Inhibition of biofilm formation in wild-type Pseudomonas aeruginosa PAO1 expressing red fluorescent protein assessed as reduction in biomass at 200 uM after 24 hrs by confocal laser scanning microscopic analysis relative to control. The class given is functional.
Data set [17] deals with Pseudomonas aeruginosa. In words: Inhibition of biofilm formation in wild-type Pseudomonas aeruginosa PAO1 at 200 uM after 24 hrs by crystal violet staining-based assay relative to control. It counts as functional.
The test system of data set [18] is Escherichia coli. In words: Inhibition of biofilm formation in wild-type Escherichia coli RP437 expressing red fluorescent protein assessed as reduction in biomass at 200 uM after 24 hrs by confocal laser scanning microscopic analysis relative to control. The class given is functional. As to conditions: RP437, 24 h.
Data set [19] has as its system Escherichia coli. Nature of the data set: Inhibition of biofilm formation in sdiA-knockout Escherichia coli AY1297 at 200 uM after 24 hrs by scanning electron microscopic analysis. The class given is functional, organism-based.
Data set [20] relates to Pseudomonas aeruginosa. Nature of the data set: Inhibition of biofilm formation in wild-type Pseudomonas aeruginosa PAO1 expressing red fluorescent protein assessed as effect on thickness of biofilm at 200 uM after 24 hrs by confocal laser scanning microscopic analysis. The class given is functional, organism-based.
The subject of data set [21] is Pseudomonas aeruginosa. Nature of the data set: Inhibition of biofilm formation in wild-type Pseudomonas aeruginosa PAO1 expressing red fluorescent protein assessed as effect on surface area of biofilm at 200 uM after 24 hrs by confocal laser scanning microscopic analysis. The class given is functional, organism-based.
In data set [22] the test system is Escherichia coli. In words: Antimicrobial activity against wild-type Escherichia coli RP437 assessed as inhibition of planktonic growth at 300 uM measured for 2 to 24 hrs. The class given is organism-based. Conditions: in vivo.
Data set [23] has as its system Pseudomonas aeruginosa. Nature of the data set: Antimicrobial activity against wild-type Pseudomonas aeruginosa PAO1 assessed as inhibition of planktonic growth at 300 uM measured for 2 to 24 hrs. It counts as organism-based. Conditions: in vivo.
Data set [24] concerns Escherichia coli. Nature of the data set: Antimicrobial activity against sdiA-knockout Escherichia coli AY1297 assessed as inhibition of planktonic growth at 300 uM measured for 2 to 24 hrs. The class given is organism-based. Conditions: in vivo.
In data set [25] the test system is Escherichia coli. Nature of the data set: Inhibition of biofilm formation in sdiA-knockout Escherichia coli AY1297 at 300 uM after 24 hrs by crystal violet staining-based assay relative to control. It counts as functional. As to conditions: AY1297, 24 h.
The subject of data set [26] is Escherichia coli. In words: Inhibition of biofilm formation in wild-type Escherichia coli RP437 at 300 uM after 24 hrs by crystal violet staining-based assay relative to control. It counts as functional. Conditions: RP437, 24 h.
Data set [27] has as its system Pseudomonas aeruginosa. Nature of the data set: Antimicrobial activity against wild-type Pseudomonas aeruginosa PAO1 assessed as inhibition of planktonic growth at 1 to 100 uM measured for 2 to 24 hrs. Conditions: in vivo. The class given is organism-based.
Data set [28] relates to Escherichia coli. Nature of the data set: Antimicrobial activity against wild-type Escherichia coli RP437 assessed as inhibition of planktonic growth at 1 to 100 uM measured for 2 to 24 hrs. It counts as organism-based. As to conditions: in vivo.
Data set [29] relates to Escherichia coli. Nature of the data set: Inhibition of biofilm formation in wild-type Escherichia coli RP437 at 100 uM. The class given is functional, organism-based.
For data set [30], the system named is Pseudomonas aeruginosa. Nature of the data set: Inhibition of biofilm formation in wild-type Pseudomonas aeruginosa PAO1 at 100 uM. It counts as functional, organism-based.
For data set [31], the system named is Pseudomonas aeruginosa. Nature of the data set: Antimicrobial activity against wild-type Pseudomonas aeruginosa PAO1 assessed as inhibition of planktonic growth at 100 uM measured for 2 to 24 hrs. Conditions: in vivo. It counts as organism-based.
Data set [32] concerns Pseudomonas aeruginosa. In words: Inhibition of biofilm formation in wild-type Pseudomonas aeruginosa PAO1 at 50 uM. The class given is functional, organism-based.

In the case of `CC1=C(Br)/C(=C\Br)OC1=O`, the inhibition (usually the share of the control response that was lost under treatment) at 200 µM in the data set with Escherichia coli [1] is 36%; with Escherichia coli [5] (RP437, 24 h), 50%; with Escherichia coli [13] (AY1297, 24 h) it was 18%; with Pseudomonas aeruginosa [16] (PAO1, 24 h), 41%; in the data set with Pseudomonas aeruginosa [17] (PAO1, 24 h) it was 43%; with Escherichia coli [18], 53%. For the same compound, the “growth inhibition (GI)” value in the data set with Escherichia coli [2], with Pseudomonas aeruginosa [14] and with Escherichia coli [15] was “Non-toxic” throughout. In data set [3], this compound displayed an inhibition of 43%. For the same compound, the Activity in the data set with Escherichia coli [4] turned out to be 126 um; in the data set on Escherichia coli [11], 137 um. In addition, the inhibition result (in the data set with Escherichia coli [6]; in the data set with Escherichia coli [9]; in [10]; in the data set on Escherichia coli [12]) was “Active” in each case. Also, in data set [7], the result was Active. For the same compound, in the data set on Escherichia coli [8], the Ratio amounted to 2. Further, the inhibition entry with Escherichia coli [19] was “inactive”.

As to `C/C(Br)=C1\C=CC(=O)O1`, the inhibition entry in the data set on Pseudomonas aeruginosa [20], in the data set on Pseudomonas aeruginosa [21], in the data set on Escherichia coli [5], in the data set on Escherichia coli [13], in the data set with Pseudomonas aeruginosa [16] and in the data set on Pseudomonas aeruginosa [17] was “inactive” in each case. The inhibition in [3] was 41%. Besides, the “growth inhibition (GI)” value in the data set with Escherichia coli [22], in the data set with Pseudomonas aeruginosa [23] and in the data set with Escherichia coli [24] was “Non-toxic” in each case. Moreover, the result in data set [7] was Active. Further, in the data set with Escherichia coli [8], the Ratio is on record as 2. Besides, the inhibition entry in [10] was “Active”. For the same compound, the results for the inhibition at 300 µM with Escherichia coli [25] and in the data set on Escherichia coli [26] were 26% and 34%, respectively.

With `O=C1C=C(Br)/C(=C/Br)O1`, the “growth inhibition (GI)” value is reported as “Toxic” in the data set with Escherichia coli [2], “Non-toxic” in the data set on Pseudomonas aeruginosa [14] and “Toxic” in the data set on Escherichia coli [15]. The Activity entry in the data set with Pseudomonas aeruginosa [27] and in the data set with Escherichia coli [28] was “Non-toxic” throughout. In addition, the inhibition entry in the data set with Escherichia coli [29] and in the data set with Pseudomonas aeruginosa [30] was “inactive” each time.

With `O=C1C=C/C(=C/Br)O1`, the “growth inhibition (GI)” value in the data set on Escherichia coli [2] is on record as “Toxic”; in the data set with Pseudomonas aeruginosa [14] it was “Toxic”; in the data set with Escherichia coli [15], “Non-toxic”. In addition, the Activity entry in the data set with Escherichia coli [28] was “Non-toxic”; in the data set on Pseudomonas aeruginosa [31] it was “Toxic”. The inhibition entry with Escherichia coli [29] and in the data set with Pseudomonas aeruginosa [32] was “inactive” throughout.
